Holding throughout (assay type): cell-based
One experiment relates to KG1a cell line. In words: Annexin V/propidium iodide apoptosis assay. The conditions noted are these: 72 h, dose required to kill 50% of the cells. How it is done: Cells of the KG1a cell line were maintained in RPMI medium (Invitrogen, Paisley, UK) supplemented with 100 units/ml penicillin, 100 μg/ml streptomycin and 20% foetal calf serum. Cells were subsequently aliquoted (10^5 cells/100 μl) into 96-well plates and were incubated at 37° C. in a humidified 5% carbon dioxide atmosphere for 72 h in the presence of nucleoside analogues and their respective phosphoramidates at concentrations that were experimentally determined for each series of compounds. In addition, control cultures were carried out to which no drug was added. Cells were subsequently harvested by centrifugation and were analyzed by flow cytometry using the Annexin V assay.
Measurement of in vitro apoptosis. Cultured cells were harvested by centrifugation and then resuspended in 195 μl of calcium-rich buffer. Subsequently, 5 μl of Annexin V (Caltag Medsystems, Botolph Claydon, UK) was added to the cell suspension and cells were incubated in the dark for 10 mins prior to washing. Cells were finally resuspended in 190 μl of calcium-rich buffer together with 10 μl of propidium iodide. Apoptosis was assessed by dual-colour immunofluorescent flow cytometry as described previously. Subsequently LD50 values (the dose required to kill 50% of the cells in a culture) were calculated for each nucleoside analogue and phosphoramidate.
The data obtained in these experiments were evaluated using one way ANOVA. All data was confirmed as Gaussian or a Gaussian approximation using the omnibus K2 test. LD50 values were calculated from the non-linear regression and line of best-fit analysis of the sigmoidal dose-response curves. All statistical analyses were performed using Graphpad Prism 6.0 software (Graphpad Software Inc., San Diego, Calif.).

Experiment [1] has as its system Z-138 Mantle cell lymphoma. Put plainly: In vitro viability assay, CellTiterGlo. The conditions noted are these: Z-138, CellTiterGlo, 72 h. In a few lines: (§1)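 Cells were treated for ~72 h with a 9-point, 3.16-fold dilution series, 198 μM to 19.9 nM final, in 0.5% DMSO final, in duplicate. Viability was read by CellTiterGlo luminescence.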
Background: Cellular ATP, detected with luciferase, serves as a proxy for viable cell number.

Experiment [2] deals with KG-1 Acute myelogenous leukaemia. Put plainly: In vitro viability assay, CellTiterGlo. To be noted: KG-1, CellTiterGlo, 72 h. An outline of the steps: as §1
Experiment [3] relates to RL Non-Hodgkin's lymphoma. In words: In vitro viability assay, CellTiterGlo. The conditions noted are these: CellTiterGlo, 72 h. In a few lines: as §1
Experiment [4] concerns HEL92.1.7 Erythroleukaemia. Put plainly: In vitro viability assay, CellTiterGlo. The conditions noted are these: HEL92.1.7, CellTiterGlo, 72 h. An outline of the steps:
as §1

In experiment [5] the test system is HL-60 Promyelocytic leukaemia. Put plainly: In vitro viability assay, CellTiterGlo. The conditions noted are these: HL-60, CellTiterGlo, 72 h. In a few lines: as §1
A further experiment concerns NB4. In words: In vitro cytotoxicity, MTS assay. To be noted: Homo sapiens, NB-4, 72 h, read-out: Inhibitory concentration (IC50) NB4. In a few lines: (§2)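 Cells exposed 72 h at 37° C, 5% CO2 to serial dilutions from 100 μM to 0.02 μM. MTS added for 4 h more, absorbance read at 490 nm. Viability relative to untreated cells; IC50 is the concentration giving 50% loss of viability.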

A further experiment has as its system KG1. Put plainly: In vitro cytotoxicity, MTS assay. To be noted: Homo sapiens, KG-1, 72 h, read-out: Inhibitory concentration (IC50) KG1. An outline of the steps: as §2
Background: Tetrazolium assays rely on reduction of a dye to a coloured formazan, in cell work by metabolically active cells.

The subject of the next experiment is NB4R2. Put plainly: In vitro cytotoxicity, MTS assay. The conditions noted are these: 72 h, read-out: Inhibitory concentration (IC50) NB4R2. In a few lines: as §2
For a further experiment, the system named is HL-60. Put plainly: In vitro cytotoxicity, MTS assay. To be noted: Homo sapiens, 72 h, read-out: Inhibitory concentration (IC50) HL-60. An outline of the steps: as §2
Another experiment relates to U937. In words: In vitro cytotoxicity, MTS assay. To be noted: Homo sapiens, U-937, 72 h, read-out: Inhibitory concentration (IC50) U937. An outline of the steps: as §2
In the next experiment the test system is K562. In words: In vitro cytotoxicity, MTS assay. To be noted: Homo sapiens, 72 h, read-out: Inhibitory concentration (IC50) K562. In a few lines:
as §2

Setting [6] is: Homo sapiens, read-out: EC50 (μM) Ab.

Compound `Nc1nc(Cl)nc2c1ncn2[C@H]1C[C@H](O)[C@@H](CO)O1` [Cladribine, cladribine, reference compound] yielded an LD50 in the experiment with KG1a cell line of 0.18 μm. Besides, the half-maximal effective concentration (EC50) was below 0.019 µM in [1] (setting [6]); 0.17 µM in experiment [2] (setting [6]); below 0.019 µM in experiment [3] (setting [6]); below 0.019 µM in [4] (Homo sapiens, HEL 92.1.7, read-out: EC50 (μM) Ab); below 0.019 µM in experiment [5] (setting [6]). Besides, the “Top Inhibition (%)” value in [1] is reported as 99.7%; in experiment [2] it was 93.5%; in experiment [3], 94.7%; in [4], 97.4%; in experiment [5] it was 85%. The IC50 with NB4 was determined as 40 nM; with KG1 it was 60 nM; with NB4R2, 60 nM; with HL-60, 90 nM; in the experiment on U937 it was 20 nM; with K562 it was 530 nM.

The EC50 is the concentration that produces a half-maximal response.

Values taken from patent US10906929B2, “Phosphoramidate nucleoside derivatives as anticancer agents” (NuCana plc, priority 2016, dated 2021).
